Assay results: patent publication US20040248887A1, “Inhibitors of cathepsin S” (IRM LLC, priority 2003, published 2004)

target: Cathepsin S (Homo sapiens, UniProt P25774); experiment: Cathepsin S inhibition, fluorogenic peptide substrate kinetic assay; format: biochemical; settings: Table II; Cathepsin S inhibition constant, pH5.5; read-out: Ki Cat. S
How it was run: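 Reactions were started with 50 μM (final) acetyl-His-Pro-Val-Lys-aminocarbamoylcoumarin, and hydrolysis was followed by fluorescence (ex 380/em 450 nm). Apparent inhibition constants from enzyme progress curves were converted to Ki for competitive inhibitors using substrate concentration and Km.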

Chain of Cathepsin S (P25774 115-331, species assumed): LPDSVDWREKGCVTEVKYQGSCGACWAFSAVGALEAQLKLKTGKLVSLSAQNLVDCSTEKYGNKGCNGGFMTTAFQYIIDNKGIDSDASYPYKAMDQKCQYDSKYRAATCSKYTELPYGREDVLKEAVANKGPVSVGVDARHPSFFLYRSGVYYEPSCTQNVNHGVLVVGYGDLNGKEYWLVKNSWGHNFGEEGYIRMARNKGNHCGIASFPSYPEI

Ki [nM] | SMILES
< 100 | C[C@@H](CNc1ccc2c(c1)OCO2)NC(=O)[C@H](CC1CCCCC1)NC(=O)c1ccc(-c2cccc(F)c2)o1 [Compound 85, 5-(3-Fluoro-phenyl)-furan-2-carboxylic acid {1-(S)-[2-(benzo[1,3]dioxol-5-ylamino)-1-(S)-methyl-ethylcarbamoyl]-2-cyclohexyl-ethyl}-amide]
< 100 | C[C@@H](CNc1ccc(OC(F)(F)F)cc1)NC(=O)[C@H](CC1CCCC1)NC(=O)O[C@H]1CCOC1 [Compound 192, (S,S)-{2-Cyclopentyl-1-[1-methyl-2-(4-trifluoromethoxy-phenylamino)-ethylcarbamoyl]-ethyl}-carbamic acid tetrahydrofuran-3-(S)-yl ester]
< 10000 | Cn1cncc1S(=O)(=O)N[C@@H](CC1CCCCC1)C(=O)NCCN1CCc2cc(F)ccc21 [Compound 232, (S)-3-Cyclohexyl-N-[2-(5-fluoro-2,3-dihydro-indol-1-yl)-ethyl]-2-(3-methyl-3H-imidazole-4-sulfonylamino)-propionamide]
< 100 | Cc1ccc(C(C)C(=O)N[C@@H](CC2CCCCC2)C(=O)NCCN2CCc3cc(F)ccc32)cc1 (stereo partly drawn) [Compound 60, N-{2-cyclohexyl-1-(S)-[2-(5-fluoro-2,3-dihydro-indol-1-yl)-ethylcarbamoyl]-ethyl}-2-p-tolyl-propionamide]
< 100 | C[C@@H](CNc1ccc2c(c1)C(=O)OC2)NC(=O)[C@H](CC1CCCCC1)NC(=O)c1ccc(-c2cccc(F)c2)o1 [Compound 137, 5-(3-Fluoro-phenyl)-furan-2-carboxylic acid {2-cyclohexyl-1-(S)-[1-(S)-methyl-2-(3-oxo-1,3-dihydro-isobenzofuran-5-ylamino)-ethylcarbamoyl]-ethyl}-amide]
< 100 | CC(C(=O)N[C@@H](CC1CCCCC1)C(=O)NCCN1CCc2cc(F)ccc21)c1ccc(Cl)cc1 (stereo partly drawn) [Compound 64, 2-(4-Chloro-phenyl)-N-{2-cyclohexyl-1-(S)-[2-(5-fluoro-2,3-dihydro-indol-1-yl)-ethylcarbamoyl]-ethyl}-propionamide]
< 1000 | Cc1cc(NC[C@H](C)NC(=O)[C@H](CC2CCCCC2)NC(=O)c2ccc(-c3cccc(F)c3)o2)on1 [Compound 247, 5-(3-Fluoro-phenyl)-furan-2-carboxylic acid {2-cyclohexyl-1-(S)-[1-(S)-methyl-2-(3-methyl-isoxazol-5-ylamino)-ethylcarbamoyl]-ethyl}-amide]
< 100 | C[C@@H](CN1CCc2cc(F)ccc21)NC(=O)[C@H](CC(C)(C)C)NC(=O)OCc1ccccc1 [Compound 176, {1-(S)-[2-(5-Fluoro-2,3-dihydro-indol-1-yl)-1-(S)-methyl-ethylcarbamoyl]-3,3-dimethyl-butyl}-carbamic acid benzyl ester]
< 100 | C[C@@H](CNc1ccc(F)cc1)NC(=O)[C@H](CC1CCCCC1)NC(=O)c1ccc(-c2cccc(F)c2)o1 [Compound 126, 5-(3-Fluoro-phenyl)-furan-2-carboxylic acid {2-cyclohexyl-1-(S)-[2-(4-fluoro-phenylamino)-1-(S)-methyl-ethylcarbamoyl]-ethyl}-amide]
< 1000 | C[C@@H](CNc1ccc(OC(F)(F)F)cc1)NC(=O)[C@H](CC1CCCCC1)NC(=O)O[C@@H]1CCN(C(=O)OC(C)(C)C)C1 [Compound 185, 3-(R)-{2-Cyclohexyl-1-(S)-[1-(S)-methyl-2-(4-trifluoromethoxy-phenylamino)-ethylcarbamoyl]-ethylcarbamoyloxy}-pyrrolidine-1-carboxylic acid tert-butyl ester]
< 1000 | Cc1cccc(C(=O)N[C@@H](CCC2CCCCC2)C(=O)NCCN2CCc3cc(F)ccc32)c1 [Compound 204, N-((S)-1-(2-(5-fluoroindolin-1-yl)ethylcarbamoyl)-3-cyclohexylpropyl)-3-methylbenzamide]
< 100 | Cc1cccc(S(=O)(=O)N[C@@H](CC2CCCCC2)C(=O)NCCN2CCc3cc(F)ccc32)c1 [Compound 243, (S)-3-Cyclohexyl-N-[2-(5-fluoro-2,3-dihydro-indol-1-yl)-ethyl]-2-(toluene-3-sulfonylamino)-propionamide]
< 100 | Cc1nc(C)c(S(=O)(=O)N[C@@H](CC2CCCCC2)C(=O)N[C@@H](C)CN2CCc3cc(F)ccc32)s1 [Compound 210, (S,S)-3-Cyclohexyl-2-(2,4-dimethyl-thiazole-5-sulfonylamino)-N-[2-(5-fluoro-2,3-dihydro-indol-1-yl)-1-methyl-ethyl]-propionamide]
< 100 | O=C(N[C@@H](CC1CCCCC1)C(=O)N[C@@H](COCc1ccccc1)CN1CCc2cc(F)ccc21)OCc1ccccc1 [Compound 169]
< 1000 | COc1ccc(CC(=O)N[C@@H](CC2CCCCC2)C(=O)NCCN2CCc3cc(F)ccc32)cc1 [Compound 6, (S)-3-Cyclohexyl-N-[2-(5-fluoro-2,3-dihydro-indol-1-yl)-ethyl]-2-[2-(4-methoxy-phenyl)-acetylamino]-propionamide]
< 1000 | C[C@@H](CNc1ccc(S(=O)(=O)N2CCOCC2)cc1)NC(=O)[C@H](CC1CCCCC1)NC(=O)c1ccc(-c2cccc(F)c2)o1 [Compound 136, 5-(3-Fluoro-phenyl)-furan-2-carboxylic acid (2-cyclohexyl-1-(S)-{1-(S)-methyl-2-[4-(morpholine-4-sulfonyl)-phenylamino]-ethylcarbamoyl}-ethyl)-amide]
< 100 | COc1ccc(NC[C@H](COCc2ccccc2)NC(=O)[C@H](CC(C)C)NC(=O)c2cccc(C)c2)cc1 [Compound 35, N-{1-(S)-[1-(R)-Benzyloxymethyl-2-(4-methoxy-phenylamino)-ethylcarbamoyl]-3-methyl-butyl}-3-methyl-benzamide]
< 100 | Cc1cccc(C(=O)N[C@@H](CC(C)C)C(=O)N[C@@H](CCC(N)=O)CN2CCc3cc(F)ccc32)c1 [Compound 44, (S,S)-N-{1-[3-Carbamoyl-1-(5-fluoro-2,3-dihydro-indol-1-ylmethyl)-propylcarbamoyl]-3-methyl-butyl}-3-methyl-benzamide]
< 1000 | CS(=O)(=O)N1CCC(C(=O)N[C@@H](CC2CCCCC2)C(=O)NCCN2CCc3cc(F)ccc32)CC1 [Compound 77, 1-Methanesulfonyl-piperidine-4-carboxylic acid (S)-{2-cyclohexyl-1-[2-(5-fluoro-2,3-dihydro-indol-1-yl)-ethylcarbamoyl]-ethyl}-amide]
< 10000 | COc1cccc(C(=O)N[C@@H](CCC2CCCCC2)C(=O)NCCN2CCc3cc(OC)ccc32)c1 [Compound 16, (S)-N-{3-Cyclohexyl-1-[2-(5-methoxy-2,3-dihydro-indol-1-yl)-ethylcarbamoyl]-propyl}-3-methoxy-benzamide]
< 10000 | O=C(NCCN1CCc2cc(F)ccc21)[C@H](CC1CCCCC1)NS(=O)(=O)Cc1ccccc1 [Compound 242, (S)-3-Cyclohexyl-N-[2-(5-fluoro-2,3-dihydro-indol-1-yl)-ethyl]-2-phenylmethanesulfonylamino-propionamide]
< 1000 | C[C@@H](CNc1cccc(-c2nnn[nH]2)c1)NC(=O)[C@H](CC1CCCCC1)NC(=O)OCc1ccccc1 [Compound 180, (2-Cyclohexyl-1-(S)-{1-(S)-methyl-2-[3-(1H-tetrazol-5-yl)-phenylamino]-ethylcarbamoyl}-ethyl)-carbamic acid benzyl ester]
